Measured values taken from US4434290A, “Pyrido (4,3-B) carbazoles substituted in the 1 position by a polyamine chain” (priority 1978, dated 1984).

How the values were obtained:
[1] = system: cells of viro-induced leukemia of Friend; assay: In vitro cytotoxic study on cells of the Friend leukemia of the mouse (Table XV); type: cell-based
Method: "In vitro" cytotoxic study of the compounds of the invention on the cells of viro-induced leukemia of Friend in the mouse [J. Exp. Med. 1957, 105, p. 307-318].
The cells were grown in suspension in the RPMI 1640 medium [catalogue of GIBCO Bio-Cult-Ltd, Washington Road Sandyford Industrial Estate Paisley PA3 4EP Renfrewshire Scotland] supplement with 20% of embryonary calf serum, with penicillin and with streptopycin. The duplication time of the culture was about 11 hours. The growth factor is equal to 1 or very close to 1 (all the cells multiplying).
The cultures were seeded at times t=0 at the concentration of 2×10^5 cells per ml in Falcon dishes containing 4 ml of medium. 24 hours later, the product to be tested (in solution, in acetic water) was added, at the moment when the cells were in the exponential growth phase. 24 hours after the addition of the product, the cells were counted and the percentage of living cells determined by an exclusion test with trypan blue.

Friend's virus (VFA) = assay: Anemia inducing Friend's virus, dose/effect relationship (Table XIX); type: in vivo, mice; details: for Death interval / ILS % / Mean survival time: VFA 1/800, D+1; for Surviving mice: groups of 10 mice
From the text: The following experiments related to the treatment of mice inoculated by the virus of Friend's leukemia.
In these experiments DBA2, male mice, aged from 2 to 3 months, of weight around 20 g, were used.
An anemia inducing strain of Friend's virus (VFA) maintained for several years in the laboratory was used. The viral stock was constituted by an acellular supernatant liquor obtained by the centrifugation of a ground product of leukemic spleens, carried out in an 0.5 M PBS-saccharose solution. The assay of the stock was done in vivo by the method described by JASMIN et al [J. Nat. Cancer Inst. 1974,53, 469-474]. The measurement is expressed in SD50 (50% spleen enlarging dose).
Experimental groups of 10 mice were used, into which the VFA virus (dilution 1/800-% of leukemias=100%) was injected on day Do. The compound 27 according to the invention was then injected at day D+1 at various doses according to the groups and the death interval, the mean survival time and the percentage of increased life span were determined.

**Q.** With CCN(CC)CCCNc1nccc2c(C)c3[nH]c4ccc(OC)cc4c3c(C)c12 [Compound 27] as the compound, how does the IC50 ([1]; Mus musculus, 24 h, read-out: LD 50 (50% lethal dose)) read?
**A.** 450 nM

**Q.** And the IC100 ([1]; Mus musculus, 24 h, read-out: LD 100 (100% lethal dose))?
**A.** 1.2 µM

**Q.** What about the “LD 50 HUM / LD 50 product” value ([1]; ratio to reference HUM) of the same compound?
**A.** 0.65

**Q.** And the deaths through toxicity (Friend's virus (VFA); 15 mg/kg, group of 10 mice)?
**A.** Two

**Q.** What about the “dose/effect relationship” value (Friend's virus (VFA); 5-15 mg/kg) of the same compound?
**A.** proportional to the inoculated dose

**Q.** And the Death interval (Friend's virus (VFA); 5 mg/kg)?
**A.** 25-36

**Q.** And the ILS % (Friend's virus (VFA); 5 mg/kg)?
**A.** 31.78%

**Q.** What about the Mean survival time (Friend's virus (VFA); 5 mg/kg) of the same compound?
**A.** 31.1

**Q.** And the Death interval (Friend's virus (VFA); 10 mg/kg)?
**A.** 32-64

**Q.** What about the ILS % (Friend's virus (VFA); 10 mg/kg) of the same compound?
**A.** 103%

**Q.** What about the Mean survival time (Friend's virus (VFA); 10 mg/kg) of the same compound?
**A.** 45.8

**Q.** What about the Death interval (Friend's virus (VFA); 15 mg/kg) of the same compound?
**A.** 33-63

**Q.** And the Mean survival time (Friend's virus (VFA); 15 mg/kg)?
**A.** 49.9

**Q.** And the ILS % (Friend's virus (VFA); 15 mg/kg, toxic deaths excluded)?
**A.** 122%

**Q.** What about the Surviving mice (Friend's virus (VFA); 5 mg/kg) of the same compound?
**A.** 0 mice

**Q.** And the Surviving mice (Friend's virus (VFA); 10 mg/kg)?
**A.** 0 mice

**Q.** And the Surviving mice (Friend's virus (VFA); 15 mg/kg)?
**A.** 0 mice
